Read-outs that look alike come from different tables or passages of the source.

Test [1] concerns RXR. On the set-up: method as in PMID 34544906. The note with it: porcine RPE cells in vitro; cited from earlier work.
Test [2] has as its system IL-8. Further details: method as in PMID 34544906. The note with it: norbixin at 20 mM (so in the source); cited from earlier work.
The subject of test [3] is albino rats exposed to blue-light-induced photoreceptor degeneration. Further details: method as in PMID 27992460. The note with it: IP; cited from earlier work.
In test [4] the test system is IL-6. As to the kind of experiment: IL-6 mRNA expression induced by A2E (quantitative RT-PCR). In kind it is cell-based, pig. Here is the method: (§1) RPE cells were obtained from pig eyes, as previously described. RPE cells were seeded on a 96-well plate at a density of 1.5 × 10^5 cells/cm^2 in DMEM 2% FCS. BIO201, BIO203, or its pure enantiomers were added in increasing concentrations to the culture medium 48 h before illumination. A2E was added to the medium at a final concentration of 30 μM, and 19 h later, blue-light illumination was performed for 50 min using a 96 blue-led device (Durand, St Clair de la Tour, France) emitting at 470 nm (1440 mcd, 8.6 mA). Just before illumination, the culture medium was replaced by a modified DMEM without any photosensitizer and with 2% FCS. Twenty-four hours after blue-light irradiation, all cell nuclei were stained with Hoechst 33342, and nuclei of dead cells with ethidium homodimer 2, fixed with paraformaldehyde (4% in PBS, 10 min) and 9 pictures per well were captured using a fluorescence microscope (Nikon TiE) equipped with a CoolSNAP HQ2 camera and driven by Metamorph Premier On-Line program. Quantification of live cells was performed using Metamorph Premier Off-Line and a homemade program by subtraction of dead cells from all cells. For cytokines mRNA analysis, RPE cells were seeded in 24-well plates and left untreated or treated with A2E or BIO203 alone or A2E plus BIO203. […]

The test system of test [5] is Abca4−/− Rdh8−/− mice. As to the kind of experiment: Photoreceptor nuclear layer thickness after 6 months of oral complementation in Abca4−/− Rdh8−/− mice. It is filed as in vivo, mouse. The note with it: HD pellets, 17-month-old mice. Here is the method:
At the end of the measurement period on Day 7, rats were euthanized by an intraperitoneal injection of pentobarbital. Immediately after euthanasia, both eyeballs were sampled, fixed in Davidson’s solution, and processed for histology. Sections (5 to 7 µm thick) were performed along the vertical meridian and stained with Haematoxylin/Eosin stain. The vertical meridian included the optic nerve. […] The thickness of the outer nuclear layer was measured on each point. […] Histology and photoreceptor counting in mice were performed as previously described.
A custom rodent diet was formulated and irradiated (25 kGy) by Envigo RMS SARL (Gannat, France). Low dose (LD)-BIO203 (50 μg/g) and high dose (HD)-BIO203 (500 μg/g) were incorporated into Teklad Custom Research Diet 2016© pellets. […] The concentration of BIO203 in the customized pellets at the end of each batch was determined by HPLC MS/MS. […] We calculated that in the LD group, male mice weighing 31.63 g after 2 months of complementation consumed 4.16 g of pellets, and in the HD group, male mice weighing 34.11 g after 2 months of complementation consumed 4.11 g of pellets every day, which correspond to a daily dose of 6.04 ± 0.46 mg/kg for the LD-BIO203 pellets and 55.91 ± 2.93 mg/kg for the HD-BIO203 pellets. […]

The test system of test [6] is VEGF. Put plainly: VEGF mRNA expression induced by A2E (quantitative RT-PCR). In kind it is cell-based, pig. The note with it: BIO203 20 mM (so in the source); A2E 20 μM; porcine RPE cells; p < 0.001. The procedure:
as §1

Test [7] deals with NF-κB. Put plainly: NF-κB transactivation assay induced by A2E. In kind it is cell-based, pig. The note with it: compound 20 μM; A2E 20 μM; p < 0.05. Here is the method:
(§2) Transactivation assays were performed as previously described. Briefly, RPE cells were plated in DMEM 2% FCS at a density of 6 × 10^4 cells/cm^2. The next day transfections using the Cignal Reporter Assay Kits for PPAR, RXR, AP-1, and NF-κB were performed with Lipofectamine and Plus Reagent in serum-free medium. Three hours after the transfection, A2E and/or BIO203, both at 20 μM, were added to the culture medium for 24 h. Luciferase activity was measured using the Dual-Luciferase Reporter Assay System and with a luminometer (Infinite M1000 from Tecan, Mannedorf, Switzerland). At least 3 independent transfections were performed in triplicate for each condition.

For test [8], the system named is Abca4−/− Rdh8−/− mice. Put plainly: A2E quantification in eyes of Abca4−/− Rdh8−/− mice (HPLC-MS/MS). In kind it is in vivo, mouse. The note with it: 6 months. An excerpt: To test the preventive/curative action of oral administration of BIO203 against retinal neurodegeneration, a total of 27 Pigmented Abca4^−/− Rdh8^−/− mice carrying the Rpe65-Leu450 mutation and the rd8 mutation in the Crb1 gene from Case Western Reserve University of eleven to twelve months of age were used. Three groups of 9 males received control chow (Teklad Custom Research Diet 2016© pellets) or chow containing LD-BIO203 or HD-BIO203 orally for 6 months. After 6 months of complementation, ERG was measured in both eyes. In the control group, two mice died during the period of complementation and one mouse during ERG measurement. In the HD-BIO203 group, one mouse died before the end of complementation, and 3 mice died just after anesthesia. All the mice that received LD-BIO203 were alive until the end of the complementation. One of them died during the photopic ERG measurement. Blood was collected by submandibular puncture in all mice before being euthanized. In each group, half of the eyes were removed for A2E and BIO203 measurements, and half of the eyes were used for histological analyses and photoreceptor layer quantification.
A2E quantification in eyes was performed using the HPLC-MS/MS method, which has been described previously.

Test [9] has as its system RXR. As to the kind of experiment: RXR transactivation assay induced by A2E. It is filed as cell-based, pig. The note with it: compound 20 μM; A2E 20 μM; porcine RPE cells. The procedure: as §2
The test system of test [10] is PPAR. As to the kind of experiment: PPAR transactivation assay (Cignal reporter, luciferase) induced by A2E. It is filed as cell-based, pig. The note with it: compound 20 μM; A2E 20 μM; RPE cells. Here is the method:
as §2

Test [11] relates to IL-8. Put plainly: IL-8 mRNA expression induced by A2E (quantitative RT-PCR). The note with it: BIO203 20 mM (so in the source); A2E 20 μM; porcine RPE cells; p < 0.001. It is filed as cell-based, pig. Here is the method:
as §1

Consider `CC(=C/C=C/C(C)=C/C=C/C=C(C)/C=C/C=C(C)/C=C/C(=O)O)/C=C/C(=O)O` [norbixin, 9′-cis-norbixin], for which the “inhibition of RXR transactivation induced by A2E” value in test [1] is reported as “significantly inhibited”. Further, in test [2], the “effect on IL-8 mRNA expression” value is on record as “significantly reduced”. Besides, in test [3], the “lowest dose giving the maximal retinal neuroprotection and optimal preservation of visual functions” value is given as 50 mg/kg.
Consider `COC1CCCN(C(=O)/C=C/C(C)=C/C=C/C(C)=C/C=C/C=C(C)/C=C/C=C(C)\C=C\C(=O)O)C1` (stereo not shown) [BIO203], for which the “change of IL-6 mRNA expression induced by A2E” value in test [4] (BIO203 20 mM (so in the source), A2E 20 μM, porcine RPE cells, p < 0.001) is −104.8%. Further, the “effect on IL-6 expression on its own (without A2E)” value in [4] (BIO203 alone, not statistically significant) is recorded as “slightly inhibited”. In addition, in [5], the “thickness of the photoreceptor nuclear layer compared with LD or control pellets” value is listed as “No difference”. For the same compound, the “change of VEGF mRNA expression induced by A2E” value in test [6] is listed as −84.8%. The “change of NF-κB transactivation induced by A2E” value in [7] was −69.4%. In addition, the “change of A2E concentration in the retinas compared with control pellets” value in test [8] (HD pellets, not significant, p = 0.407) is −21.7%. Moreover, in test [8] (LD pellets), the “amount of ocular A2E compared with control pellets” value is recorded as “did not differ significantly”. The “inhibition of RXR transactivation induced by A2E” value in test [9] was “did not inhibit”. For the same compound, the “inhibition of PPAR transactivation induced by A2E” value in test [10] was “entirely inhibits”. In test [11], the “change of IL-8 mRNA expression induced by A2E” value is −86.8%.

These data come from article PMC10049354, “Anti-Inflammatory Effects and Photo- and Neuro-Protective Properties of BIO203, a New Amide Conjugate of Norbixin, in Development for the Treatment of Age-Related Macular Degeneration (AMD)” (International Journal of Molecular Sciences, 2023).
